Data reported in patent US10106577B2, “Agonists of neurotrophin receptors and their use as medicaments” (BIONURE FARMA, S.L., priority 2010, dated 2018).
Entries after “also recorded” stand apart in the source; their conditions may differ.

Columns and labels:
[1] = in vitro; details: rat (astrocytes)
[2] = system: PC12 cells; experiment: Synergistic activity assay (PC12 differentiation in combination with NGF); type: cell-based; details: 100 ng/ml in combination with NGF 100 ng/ml
Method: To evaluate if the small molecules G79, G80, and G81 interfere with the maximal activity of NGF or lead to additive effects, PC12 cells were plated into collagen-coated 24-wells plates with 2.5% FBS and treated after 72 h with the small chemicals (each one at 100 ng/ml) in combination with NGF at the concentration of 100 ng/ml. In the same experiment PC12 cells were treated with the small molecules or NGF alone, as controls. The number of differentiated cells was evaluated after three days of treatment. The cell count was done in three randomly selected fields with 100 cells.

[3] = system: NSC-34 cells; experiment: In vitro model of ALS, serum deprivation of motoneuron-like cells (MTT); type: cell-based, mouse; details: for neuroprotection on motorneurons challenged with serum deprivation (in words): 20 ng/ml to 50 μg/ml
Method: Mouse motoneuron-like cells NCS-34 were cultured in DMEM (Gibco) supplemented with 10% heat inactivated FBS and 1% penicillin/streptomycin. The cell culture was maintained in a humidified atmosphere of 95% air and CO2 at 37° C.
The nutritional deprivation stress in motorneurons was conducted as described previously in Masahito T. et al., J. Neuropathol. Exp. Neurol. 65(8):816-825 (2006). To assess the effect of trophic stress condition on ALS, the presence of apoptosis was investigated using serum deprivation. NSC-34 cells were seeded in 24-well poly-lysinated plates at 30,000 cells/well and preincubated for 24 h in DMEM plus 10% FBS with various doses of G79, G80, and G81 (20 ng/ml, 100 ng/ml, 2 μg/ml, 20 μg/ml, 50 μg/ml), and G-CSF (2 μg/ml) or BDNF (20 ng/ml) which both were used as positive controls (Masahito T. et al., ibid; Elliot J. L., Neurobiology of Disease 6:310-320 (1999)). Then, the medium was removed and replaced with fresh DMEM without FBS. After 48 h, cell viability was assayed by MTT assay, as described previously.

[4] = system: PC12 cells; experiment: Signalling inhibition assays (PC12 differentiation with LY294002 or PD98059); type: cell-based
Method: To evaluate if the transduction pathway induced by G79, G80, and G81 involves AKT and ERK activation, PC12 cell were treated with the test compounds in the presence of LY294002, an inhibitor of PI3K (an upstream activator of AKT) and PD98059, an inhibitor of MAPK kinase (an upstream activator of ERK). For this purpose, PC12 cells were plated into collagen-coated 24-wells plates with 2.5% FBS and after 72 hrs the cells were treated with the small molecules in combination with LY294002 (Sigma Aldrich, 10 μM) or PD98059 (Sigma Aldrich, 50 μM). NGF (100 ng/ml) was used as control and added alone or in combination with the inhibitors.

[5] = system: PC12 cells; experiment: Secretagogue activity assay (PC12 differentiation with antibody anti-NGF); type: cell-based
Method: To assess if the tested compounds, G79, G80, and G81, act as secretagogues, inducing neurotrophic activity through the synthesis of NGF, PC12 cells were plated into collagen-coated 24-wells plates with only 2.5% FBS and after 72 hrs the cells were treated with the tested compounds (each one at 100 ng/ml) together with antibody anti-NGF (1 μg/ml, AbCam). After three days of treatment, the differentiation was evaluated. The cell count was done in three randomly selected fields with 100 cells.

[6] = system: PC12 cells; experiment: Dose response differentiation assay in PC12 cell line; type: cell-based; details: for number of differentiated cells in a field of 100 cells: after 3 days of treatment; for number of differentiated cells above the best working concentration: G79 at 50 μg/ml, G81 at concentrations higher than 100 ng/ml; for differentiation of PC12 cells (in words): compared to control PC12 untreated cells; for best working concentration for PC12 differentiation: tested 2-20-100 ng/ml and 2-20-50 μg/ml
Method: Stock of PC12 cultures were maintained in Ham's F12 medium supplemented with 2.5% fetal bovine serum (FBS), 15% of horse serum (HS) and 1% penicillin/streptomycin. The cell culture was maintained in 5% CO2 at 37° C.
PC12 cell differentiation was assessed by treating the cells with all the test compounds (G79, G80, and G81) at different testing concentration (2-20-100 ng/ml and 2-20-50 μg/ml). The cells were first plated into collagen-coated 24-wells plates with 2.5% FBS in the medium to be de-differentiated. After 72 hrs, the test compounds were added and NGF (Sigma Aldrich; 100 ng/ml) as positive control of differentiation. The number of differentiated cells, with neurite processes greater than two cell bodies in length, is counted after 3 days of treatment. The cell count is done in three randomly selected fields with 100 cells.

[7] = system: RN22 cells; experiment: Survival assay in RN22 cells under CuSO4 oxidative stress (MTT); type: cell-based, rat; details: for cell viability of RN22 (in words): 1-10-50 ng/ml and 1-10 μg/ml, CuSO4 stress; for viability at 0.05 µg/mL: 50 ng/ml; for best working concentration for RN22 cell viability: tested 1-10-50 ng/ml and 1-10 μg/ml
Method: The rat schwannome cell line RN22 was cultured in Dulbecco's modified Eagle's medium (DMEM) with 10% FBS and 1% penicillin/streptomycin. The cell culture was maintained in 5% CO2 at 37° C.
RN22 were plated into 24-wells plates at the concentration of 30.000 cells/well in medium without serum. After 24 h, the test compounds G79, G80, and G81 were added at different concentrations (1-10-50 ng/ml and 1-10 μg/ml) and NGF was used as positive control of survival. The cells were so incubated for 2 hrs. Oxidative stress was induced with copper sulphate (CuSO4) at the final concentration of 150 μg/ml. After over-night incubation cell viability was determined by reading the absorbance after adding MTT (Sigma Aldrich).

[8] = system: SH-SY5Y cells; experiment: cells; type: cell-based, human; details: for protective effect against H2O2 oxidative stress (in words): H2O2 100 μM, 20 ng/ml to 50 μg/ml
Method: The cells were pre-treated for 3 hours with the test compounds at different concentrations (20 ng/ml, 100 ng/ml, 2 μg/ml, 20 μg/ml and 50 μg/ml) or BDNF (20 ng/ml) as a positive control. Then H2O2 (100 μM) was added and incubated for 24 hrs. The number of surviving cells was determined by MTT assay. […] In FIG. 5B, BDNF cell viability has been considered as the 100%. The H2O2 stress induced a decrease in the percentage of cell viability (no stress Ctr vs H2O2 stress=100±2% vs 95.9±0.5%). G79, compared to G80 and G81, is the one that exerted better protection, at the concentration of 20 ng/ml (BDNF vs G79=100±2.6 vs 107.4±5.8).

[9] = plus LY294002 (10 μM), inhibitor of PI3K
[10] = plus PD98059 (50 μM), inhibitor of MAPK kinase
[11] = 100 ng/ml together with antibody anti-NGF (1 μg/ml)
[12] = Rattus norvegicus, RN 22, CuSO4 150 μg/ml, read-out: cell viability, as % relative to the no-stress control

| SMILES | Papp [1] [×10⁻⁶ cm/s] | number of differentiated cells [2] | neuroprotection on motorneurons challenged with serum deprivation (in words) [3] | number of differentiated cells [4, 9] | number of differentiated cells [4, 10] | number of differentiated cells ([4]; treatment alone) | number of differentiated cells for each field [5, 11] | number of differentiated cells for each field ([5]; 100 ng/ml, treatment alone) | number of differentiated cells above the best working concentration [6] | differentiation of PC12 cells (in words) [6] | best working concentration for PC12 differentiation [6] [ng/mL] | cell viability of RN22 (in words) [7] | viability at 0.05 µg/mL [7, 12] [%] | best working concentration for RN22 cell viability [7] [ng/mL] | protective effect against H2O2 oxidative stress (in words) [8] | also measured |
| --- | --- | --- | --- | --- | --- | --- | --- | --- | --- | --- | --- | --- | --- | --- | --- | --- |
| CC(C)CN(CC(=O)N(CCc1ccc(S(N)(=O)=O)cc1)CC(N)=O)C(=O)CNCCN1CCCC1 [Compound G81, [N-(2-(1-Pyrrolidinyl)ethyl)glycyl]-[N-(2-methylpropyl)glycyl]-N-[2-(4′-sulfamoylphenyl)ethyl]glycinamide] | 2.1 | 13.3±3.8 | exerted neuroprotection | 6.6±4.02 | 1.6±1.1 | 14.1±3.3 | 15.5±4.1 | 14.1±3.3 | decreases | induce the differentiation of PC12 cells; also recorded: significant differentiation | 100 | increased cell viability at all tested concentrations | 102 | 50 | protective effect | number of differentiated cells in a field of 100 cells ([6]; 100 ng/ml): 9.2±3.9 cells |
| CC(C)CN(CC(=O)N(CCc1ccc(S(N)(=O)=O)cc1)CC(N)=O)C(=O)CNCCc1ccccc1F [Compound G80, [N-(2-(2′-Fluorophenyl)ethyl)glycyl]-[N-(2-methylpropyl)glycyl]-N-[2-(4′-sulfamoylphenyl)ethyl]glycinamide] | 2.8 | 13±5.9 | exerted neuroprotection | 8.5±2.6 | 4±2.3 | 15.1±6.3 | 14.1±1.8 | 15.1±6.3 |  | induce the differentiation of PC12 cells; also recorded: good differentiation with very long neurites | 20 | increased cell viability at all tested concentrations | 99.9 | 50 | protective effect |  |
| CC(C)CN(CC(=O)N(CCCN1CCCC1=O)CC(N)=O)C(=O)CNCCc1ccccc1F [Compound G79, [N-(2-(2′-Fluorophenyl)ethyl)glycyl]-[N-(2-methylpropyl)glycyl]-N-[3-(2′-oxopyrrolidinyl)propyl]glycinamide] | 4.1 | 11.3±2.6 | exerted neuroprotection | 5.28±2.54 | 3.1±1.06 | 11.5±2.8 | 18.8±4.9 | 11.5±2.8 | decreases | induce the differentiation of PC12 cells | 20000 | increased cell viability at all tested concentrations |  | 10 | protective effect | viability at 0.1 µg/mL ([3]; Mus musculus, NSC-34, 100 ng/ml, serum deprivation 48 h, read-out: cell viability, percentage relative to the control without stress): 98.1 ± 6.14%; concentration of the best neuroprotective effect ([3]; serum deprivation): 100 ng/mL; number of differentiated cells in a field of 100 cells ([6]; 20 μg/ml): 11.3±2.68 cells; viability at 0.01 µg/mL ([7]; Rattus norvegicus, RN 22, 10 ng/ml, CuSO4 150 μg/ml, read-out: cell viability, as % relative to the no-stress control): 98.1%; viability at 0.02 µg/mL ([8]; Homo sapiens, SH-SY5Y, 24 h, read-out: cell viability, BDNF cell viability considered as the 100%): 107 ± 5.8% |
